Data on 9 compounds can be found in patent US5965537A, “Dolastatin 15 derivatives with carbonyl and heterocyclic functionalities at the C-terminus” (BASF Aktiengesellschaft, priority 1997, dated 1999).

Data set [1] concerns HT-29 colon carcinoma cells. Briefly: Cytotoxicity, microculture tetrazolium assay (MTT), HT-29 cell system. The data set is classed as cell-based. Particulars: 48 hours incubation, T/C of 50% growth inhibition. On the procedure:
Cytotoxicity was measured using standard methodology for adherent cell lines, such as the microculture tetrazolium assay (MTT). Details of this assay have been published (Alley, M. C., et al., Cancer Research, 48: 589-601,(1988)). Exponentially growing cultures of HT-29 colon carcinoma cells were used to make microtiter plate cultures. Cells were seeded at 5000-20,000 cells per well in 96-well plates (in […] of media), and grown overnight at 37° C. Test compounds were added, in 10-fold dilutions varying from 10^-4 M to 10^-10 M. Cells were then incubated for 48 hours. To determine the number of viable cells in each well, the MTT dye was added ([…] of a 3 mg/ml solution of 3-(4,5-dimethylthiazol-2-yl)-2,5-diphenyltetrazolium bromide in saline). This mixture was incubated at 37° C. for 5 hours, and then […] of 25% SDS, pH 2, was added to each well. After an overnight incubation, the absorbance of each well at 550 nm was read using an ELISA reader. The values for the mean ±SD of data from replicated wells were calculated, using the formula % T/C (% viable cells treated/control). The concentration of test compound which gives a T/C of 50% growth inhibition was designated as the IC50.
Table 9, below, presents the IC50 values determined in the HT-29 cell system: […]

For data set [2], the system named is P388 lymphocytic leukemia (PS system) cell line. The conditions noted are these: cited from earlier work.
The conditions of data set [3]: synthetic Dolastatin 15; cited from earlier work.

With “2-[(S)-(Me2 Val-Val-MeVal-Pro-pyrorolidin-2-yl)]-5-phenyloxazole [III-12]”, 0.9 µM corresponded to half-maximal inhibition in data set [1] (IC50). Turning to “2-[(S)-(Me2 Val-Val-MeVal-Pro-pyrrolidin-2-yl)]-3,4-dimethyl-thiazole [III-28]”, 0.4 µM corresponded to half-maximal inhibition in data set [1] (IC50).

`CC(=O)[C@@H]1CCCN1C(=O)[C@@H]1CCCN1C(=O)[C@H](C(C)C)N(C)C(=O)[C@@H](NC(=O)[C@H](C(C)C)N(C)C)C(C)C` [Compound I-1, (S)-(Me2 Val-Val-MeVal-Pro-pyrrolidin-2-yl)-methylketone] gave an IC50 in data set [1] of more than 1 µM. `CCCCC(=O)[C@@H]1CCCN1C(=O)[C@@H]1CCCN1C(=O)[C@H](C(C)C)N(C)C(=O)[C@@H](NC(=O)[C@H](C(C)C)N(C)C)C(C)C` [Compound I-5, (S)-(Me2 Val-Val-MeVal-Pro-pyrrolidin-2-yl)butylketone] came in with an IC50 in data set [1] of more than 1 µM. On to `COCC(=O)[C@@H]1CCCN1C(=O)[C@@H]1CCCN1C(=O)[C@H](C(C)C)N(C)C(=O)[C@@H](NC(=O)[C@H](C(C)C)N(C)C)C(C)C` [Compound I-12, (S)-(Me2 Val-Val-MeVal-Pro-pyrrolidin-2-yl)methoxy-methylketone], for which, in data set [1], the IC50 is 0.4 µM. In data set [1], `COc1ccc(C(=O)[C@@H]2CCCN2C(=O)[C@@H]2CCCN2C(=O)[C@H](C(C)C)N(C)C(=O)[C@@H](NC(=O)[C@H](C(C)C)N(C)C)C(C)C)cc1` [Compound I-22, (S)-(Me2 Val-Val-MeVal-Pro-pyrrolidin-2-yl)-(4-methoxyphenyl) ketone] displayed an IC50 of more than 1 µM.

In data set [1], `CC(C)[C@H](NC(=O)[C@H](C(C)C)N(C)C)C(=O)N(C)[C@H](C(=O)N1CCC[C@H]1C(=O)N1CCC[C@H]1C(=O)c1ccc(F)cc1)C(C)C` [Compound I-32, (S)-(Me2Val-Val-MeVal-Pro-pyrrolidin-2-yl)-(4-fluorophenyl) ketone] showed an IC50 of more than 1 µM. “(S)-(Me2Val-Val-MeVal-Pro-pyrrolidin-2-yl)-trifluoromethyl-ketone [Compound I-54]” had an IC50 in data set [1] of more than 1 µM. Take Dolastatin 15: the “inhibition of growth of P388 lymphocytic leukemia cell line” value in data set [2] is “markedly inhibits the growth”. Also, in data set [3], the “solubility in aqueous systems” value is “poor solubility in aqueous systems”.
